Test results: patent US20070185129A1, “ACID ADDITION SALTS OF THIENOPYRANCARBOXAMIDE DERIVATIVES” (Recordati Ireland Limited, priority 2006, published 2007)

Key:
[1] = target: T1, recombinant human α1a receptor (Homo sapiens, UniProt P35348); conditions: cited from earlier work
T1 sequence (P35348 1-466): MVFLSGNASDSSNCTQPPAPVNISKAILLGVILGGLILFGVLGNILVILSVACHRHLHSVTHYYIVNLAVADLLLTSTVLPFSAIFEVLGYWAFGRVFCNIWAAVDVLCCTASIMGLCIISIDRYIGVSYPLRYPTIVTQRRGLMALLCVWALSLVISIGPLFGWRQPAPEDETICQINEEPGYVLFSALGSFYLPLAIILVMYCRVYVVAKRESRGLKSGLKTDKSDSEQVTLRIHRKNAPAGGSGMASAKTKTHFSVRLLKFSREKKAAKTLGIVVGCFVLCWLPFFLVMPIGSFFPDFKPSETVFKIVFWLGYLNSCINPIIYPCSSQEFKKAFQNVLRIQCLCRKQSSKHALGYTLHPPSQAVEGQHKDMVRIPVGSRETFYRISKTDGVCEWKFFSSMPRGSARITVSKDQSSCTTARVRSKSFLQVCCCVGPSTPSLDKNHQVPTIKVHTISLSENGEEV

α1L receptor = conditions: isolated rabbit aorta model system; cited from earlier work
water solubility = assay type: physicochemical
α1b receptor = target: T2, α1b receptor (Homo sapiens, UniProt P35368); test: selectivity for α1a receptor compared to α1b receptor; assay type: binding
T2 sequence (P35368 1-520): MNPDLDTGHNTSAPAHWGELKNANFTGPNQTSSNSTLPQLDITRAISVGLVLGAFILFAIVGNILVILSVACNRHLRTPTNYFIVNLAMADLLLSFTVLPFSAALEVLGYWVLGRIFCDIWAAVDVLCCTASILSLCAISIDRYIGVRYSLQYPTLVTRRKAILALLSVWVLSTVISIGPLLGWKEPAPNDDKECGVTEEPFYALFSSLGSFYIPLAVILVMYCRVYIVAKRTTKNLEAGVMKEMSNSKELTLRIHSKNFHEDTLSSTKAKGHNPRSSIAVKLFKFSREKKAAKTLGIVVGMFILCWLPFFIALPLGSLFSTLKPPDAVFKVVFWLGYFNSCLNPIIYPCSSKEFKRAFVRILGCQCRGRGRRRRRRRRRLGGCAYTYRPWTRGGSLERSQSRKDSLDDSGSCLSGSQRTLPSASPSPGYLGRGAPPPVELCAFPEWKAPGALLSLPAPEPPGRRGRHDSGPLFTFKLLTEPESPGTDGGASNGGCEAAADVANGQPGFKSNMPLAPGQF

stability of solid form = assay type: physicochemical
[2] = target: T3, recombinant human 5-HT1A receptor (Homo sapiens, UniProt P08908); test: selectivity for α1a receptor relative to 5-HT1A receptor; assay type: binding
T3 sequence (P08908 1-422): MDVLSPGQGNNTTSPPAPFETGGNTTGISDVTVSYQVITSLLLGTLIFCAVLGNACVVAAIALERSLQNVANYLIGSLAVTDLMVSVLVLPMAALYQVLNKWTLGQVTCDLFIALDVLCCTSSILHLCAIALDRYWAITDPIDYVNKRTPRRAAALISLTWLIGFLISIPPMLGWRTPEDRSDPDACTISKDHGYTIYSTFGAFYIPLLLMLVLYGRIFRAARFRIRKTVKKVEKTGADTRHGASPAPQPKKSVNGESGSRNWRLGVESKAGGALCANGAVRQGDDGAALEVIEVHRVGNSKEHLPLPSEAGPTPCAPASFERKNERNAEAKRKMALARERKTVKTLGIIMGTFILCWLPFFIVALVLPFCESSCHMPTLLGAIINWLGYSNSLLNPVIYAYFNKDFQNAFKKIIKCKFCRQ

α1d receptor = target: T4, α1d receptor (Homo sapiens, UniProt P25100); test: selectivity for α1a receptor compared to α1d receptor; assay type: binding
T4 sequence (P25100 1-572): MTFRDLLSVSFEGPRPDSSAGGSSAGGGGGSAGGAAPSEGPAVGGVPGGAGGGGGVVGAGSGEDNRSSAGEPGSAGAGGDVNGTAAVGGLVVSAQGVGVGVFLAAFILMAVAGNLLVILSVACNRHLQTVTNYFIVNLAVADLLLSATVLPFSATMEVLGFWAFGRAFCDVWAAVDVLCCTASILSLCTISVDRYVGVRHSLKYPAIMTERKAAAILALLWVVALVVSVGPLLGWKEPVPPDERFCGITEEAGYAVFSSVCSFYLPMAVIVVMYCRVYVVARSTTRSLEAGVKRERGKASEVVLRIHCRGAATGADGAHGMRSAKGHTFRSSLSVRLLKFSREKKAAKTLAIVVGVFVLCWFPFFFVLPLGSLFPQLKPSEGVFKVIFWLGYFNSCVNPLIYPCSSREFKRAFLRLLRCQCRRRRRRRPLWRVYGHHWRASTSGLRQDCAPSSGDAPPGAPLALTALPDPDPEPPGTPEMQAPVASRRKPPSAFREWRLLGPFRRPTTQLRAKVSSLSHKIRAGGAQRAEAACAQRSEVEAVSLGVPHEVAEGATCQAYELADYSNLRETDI

| Compound | affinity for the α1a receptor [1] | functional antagonism of the α1L receptor (α1L receptor) | water solubility (in words) (water solubility) | selectivity for α1a receptor as compared to the α1b receptor (α1b receptor) [fold] | heat stability / stability (in words) (stability of solid form) | selectivity for the recombinant human α1a receptor relative to the recombinant human 5-HT1A receptor [2] [fold] | selectivity for α1a receptor as compared to the α1d receptor (α1d receptor) [fold] | solubility (water solubility; water, at 25° C.) [mg/mL] |
| --- | --- | --- | --- | --- | --- | --- | --- | --- |
| COc1ccccc1N1CCN(CCCNC(=O)c2csc3c(=O)cc(C(F)(F)F)oc23)CC1 [Example 1, N-{3-[4-(2-methoxyphenyl)-1-piperazinyl]propyl}-7-oxo-5-trifluoromethyl-7H-thieno[3,2-b]pyran-3-carboxamide] | high affinity | functional antagonism | poor water solubility | ~40 | heat instability | ~45 | ~6 | – |
| COc1ccccc1N1CCN(CCCNC(=O)c2csc3c(=O)cc(C(F)(F)F)oc23)CC1.CS(=O)(=O)O [Example 2A, N-{3-[4-(2-methoxyphenyl)-1-piperazinyl]propyl}-7-oxo-5-trifluoromethyl-7H-thieno[3,2-b]pyran-3-carboxamide mesylate salt] | – | – | improved water solubility compared to the free base | – | – | – | – | 100 |
